The assay addresses USP14 (Homo sapiens, UniProt P54578). Briefly: USP14 Inhibition Assay. The note with it: average value from a minimum of two experimental determinations, read-out: IC50 Category. In kind it is biochemical. The text has this:
The activity of the compound described herein to inhibit USP14 can be measured using previously described methodology [B. H. Lee et al. Nature 2010, 467 (9), 179, the contents of which are expressly incorporated by reference herein].
Example 6: USP14 Inhibition Assay
`Cc1cc(Cl)cc(C)c1-n1cccc1C(=O)CN1CCC(O)CC1` [Compound 29, 1-(1-(4-Chloro-2,6-dimethylphenyl)-1H-pyrrol-2-yl)-2-(4-hydroxypiperidin-1-yl)ethanone]: the IC50 is > 5 µM. Under `Cc1cc(C(=O)CN2CCCCC2)c(C)n1C1CCC1` [Compound 35, 1-(1-Cyclobutyl-2,5-dimethyl-1H-pyrrol-3-yl)-2-(piperidin-1-yl)ethanone] stands > 5 µM.

`Cc1cc(C(=O)CNCCO)c(C)n1-c1ccc(Cl)cc1` [Compound 101, 1-(1-(4-Chlorophenyl)-2,5-dimethyl-1H-pyrrol-3-yl)-2-((2-hydroxyethyl)amino)ethan-one]: the half-inhibitory concentration (IC50) was > 5 µM. On to `Cc1c(C(=O)CN2CCCCC2)c(C)n(-c2ccc(Cl)cc2)c1C` [Compound 137, 1-(1-(4-Chlorophenyl)-2,4,5-trimethyl-1H-pyrrol-3-yl)-2-(piperidin-1-yl)ethanone], for which the IC50 lay in the range of 0.5 to 5 µM.

For the molecule `Cc1cc(C(=O)CN2CCC(S(C)(=O)=O)C2)c(C)n1-c1ccc(Cl)cc1` (stereo not shown) [Compound 51, 1-(1-(4-Chlorophenyl)-2,5-dimethyl-1H-pyrrol-3-yl)-2-(3-(methylsulfonyl)pyrrolidin-1-yl)ethanone], the half-inhibitory concentration (IC50) was 0.5 to 5 µM. As to `Cc1cc(C(=O)CN2CCCCC2)c(C)n1[C@H]1CC[C@@H](C(=O)OCc2ccccc2)CC1` [Compound 45, cis-Benzyl 4-(2,5-dimethyl-3-(2-(piperidin-1-yl)acetyl)-1H-pyrrol-1-yl)cyclohexanecarboxylate], the IC50 was > 5 µM. Under `Cc1cc(C(=O)CN2CCC(F)CC2)c(C)n1-c1ccc(F)cc1` [Compound 74, 1-(1-(4-Fluorophenyl)-2,5-dimethyl-1H-pyrrol-3-yl)-2-(4-fluoropiperidin-1-yl)ethanone] stands 0.5 to 5 µM; under `Cc1cc(C(=O)CN2CCCC2)c(C)n1-c1ccc(O)cc1` [Compound 19, 1-(1-(4-Hydroxyphenyl)-2,5-dimethyl-1H-pyrrol-3-yl)-2-(pyrrolidin-1-yl)ethanone], > 5 µM; under `Cc1cc(C(=O)CN2CCC(C(F)(F)F)CC2)c(C)n1-c1ccc(Cl)cc1` [Compound 53, 1-(1-(4-Chlorophenyl)-2,5-dimethyl-1H-pyrrol-3-yl)-2-(4-(trifluoromethyl)piperidin-1-yl)ethanone], 0.5 to 5 µM. As for `Cc1cc(C(=O)CN2CCCC2CCO)c(C)n1-c1ccc(Cl)cc1` (stereo not shown) [Compound 50, 1-(1-(4-Chlorophenyl)-2,5-dimethyl-1H-pyrrol-3-yl)-2-(2-(2-hydroxyethyl)pyrrolidin-1-yl)ethanone], the figure is 0.5 to 5 µM; as for `Cc1cc(C(=O)CN2CCCCC2)c(C)n1[C@H]1CC[C@@H](F)CC1` [Compound 32, 1-(1-(cis-4-Fluorocyclohexyl)-2,5-dimethyl-1H-pyrrol-3-yl)-2-(piperidin-1-yl)ethanone], > 5 µM; as for `Cc1c(C(=O)CN2CCCCC2)ccn1-c1ccc(Cl)cc1` [Compound 91, 1-(1-(4-Chlorophenyl)-2-methyl-1H-pyrrol-3-yl)-2-(piperidin-1-yl)ethanone], < 0.5 µM.

Consider `Cc1cc(C(=O)CNC2CCC(C)CC2)c(C)n1-c1ccc(Cl)cc1` (stereo not shown) [Compound 66, 1-(1-(4-Chlorophenyl)-2,5-dimethyl-1H-pyrrol-3-yl)-2-((4-methylcyclohexyl)amino)ethanone], for which the IC50 fell in the range of 0.5 to 5 µM.

`Cc1c(C(=O)CN2CCC(O)CC2)cn(C)c1-c1ccc(Cl)cc1` [Compound 94, 1-(5-(4-Chlorophenyl)-1,4-dimethyl-1H-pyrrol-3-yl)-2-(4-hydroxypiperidin-1-yl)ethanone]: the IC50 was < 0.5 µM. As for `Cc1cc(C(=O)CN2CCC[C@@H]2C(N)=O)c(C)n1-c1ccc(Cl)cc1` [Compound 3, (R)-1-(2-(1-(4-Chlorophenyl)-2,5-dimethyl-1H-pyrrol-3-yl)-2-oxoethyl)pyrrolidine-2-carboxamide], the IC50 was > 5 µM. As to `Cc1cc(Cl)cc(C)c1-n1cccc1C(=O)CN1CCCC1` [Compound 28, 1-(1-(4-Chloro-2,6-dimethylphenyl)-1H-pyrrol-2-yl)-2-(pyrrolidin-1-yl)ethanone], the IC50 is > 5 µM.

Turning to `Cc1cc(C(=O)CN2CCC(C(=O)OCc3ccccc3)CC2)c(C)n1C1CCC1` [Compound 37, Benzyl 1-(2-(1-cyclobutyl-2,5-dimethyl-1H-pyrrol-3-yl)-2-oxoethyl)piperidine-4-carboxylate], the IC50 is > 5 µM. Under `Cc1cc(C(=O)CN2CCCCC2)c(C)n1-c1ccc(C(=O)O)cc1` [Compound 114, 4-(2,5-Dimethyl-3-(2-(piperidin-1-yl)acetyl)-1H-pyrrol-1-yl)benzoic acid] stands > 5 µM; under `Cc1cc(C(=O)CN2CCCCC2)c(C)n1-c1ccc(O)cc1` [Compound 7, 1-(1-(4-Hydroxyphenyl)-2,5-dimethyl-1H-pyrrol-3-yl)-2-(piperidin-1-yl)ethanone], > 5 µM; under `Cc1cc(C(=O)CN2CCC(O)CC2)c(C)n1-c1cccc2ccccc12` [Compound 9, 1-(2,5-Dimethyl-1-(naphthalen-1-yl)-1H-pyrrol-3-yl)-2-(4-hydroxypiperidin-1-yl)ethanone], > 5 µM. In the case of `Cc1cc(C(=O)CN2CC[C@H](O)C2)c(C)n1-c1ccc(Cl)cc1` [Compound 52, (S)-1-(1-(4-Chlorophenyl)-2,5-dimethyl-1H-pyrrol-3-yl)-2-(3-hydroxypyrrolidin-1-yl)ethanone], the concentration for half-maximal inhibition (IC50) was in the range of 0.5 to 5 µM. Under `Cc1ccc(C(=O)CN2CCCCC2)n1-c1ccc(Cl)cc1` [Compound 33, 1-(1-(4-Chlorophenyl)-5-methyl-1H-pyrrol-2-yl)-2-(piperidin-1-yl)ethanone] stands > 5 µM. In the case of `Cc1cc(C(=O)CN2CCCCC2)c(C)n1-c1cccc2ccccc12` [Compound 5, 1-(2,5-Dimethyl-1-(naphthalen-1-yl)-1H-pyrrol-3-yl)-2-(piperidin-1-yl)ethanone], the IC50 was > 5 µM. `Cc1cc(C(=O)CN(CCOCc2ccccc2)CC(=O)c2cc(C)n(-c3ccc(C#N)cc3)c2C)c(C)n1-c1ccc(C#N)cc1` [Compound 43, 4,4′-(3,3′-(2,2′-((2-(Benzyloxy)ethyl)azanediyl)bis(acetyl))bis(2,5-dimethyl-1H-pyrrole-3,1-diyl))dibenzonitrile]: the IC50 is > 5 µM.

Turning to `Cc1cc(C(=O)CN2CCC(O)CC2)c(C)n1-c1ccc(C(=O)OCc2ccccc2)cc1` [Compound 111, trans-Benzyl 4-(3-(2-(4-hydroxypiperidin-1-yl)acetyl)-2,5-dimethyl-1H-pyrrol-1-yl)benzoate], the half-inhibitory concentration (IC50) was > 5 µM. Under `Cc1cc(C(=O)CN2CCC(CN)CC2)c(C)n1-c1ccc(C#N)cc1` [Compound 157, 4-(3-(2-(4-(Aminomethyl)piperidin-1-yl)acetyl)-2,5-dimethyl-1H-pyrrol-1-yl)benzonitrile] stands < 0.5 µM; under `Cc1cc(C(=O)CN2CCC(O)CC2)c(C)n1-c1ccc(F)cc1` [Compound 73, 1-(1-(4-Fluorophenyl)-2,5-dimethyl-1H-pyrrol-3-yl)-2-(4-hydroxypiperidin-1-yl)ethanone], 0.5 to 5 µM.

Turning to `Cc1cc(C(=O)CN2CCCC2)c(C)n1-c1ccc(OC(F)(F)F)cc1` [Compound 61, 1-(2,5-Dimethyl-1-(4-(trifluoromethoxy)phenyl)-1H-pyrrol-3-yl)-2-(pyrrolidin-1-yl)ethanone], the 50% inhibitory concentration (IC50) fell in the range of 0.5 to 5 µM.

Usually IC50 stands for the concentration needed to halve the response being measured.
